Test results as given in patent US10723726B2, “Solid forms of (Z)-4-(5-((3-benzyl-4-oxo-2-thioxothiazolidin-5-ylidene)methyl)furan-2-yl)benzoic acid” (GB006, INC., priority 2015, dated 2020).
In brackets after ≈: the same amount, converted by molar mass. Counter-ions that a name gives are not always drawn.

Assays:
in vivo = conditions: male
Procedure: Test system: Healthy Beagle dog weighing 10-12 kg (age 10 months), males were used for the study. Crossover design was adopted for the experiments wherein 03 dogs were used in the study for oral and intravenous administration. The animals were housed stainless steel cage provided with a hopper to hold pellet feed and a separate water hopper. Temperature and humidity was maintained at 23±5° C. and 30-70%, respectively. The illumination was controlled to give a sequence of 12 h light and 12 h dark cycle. All the animals were adapted to the experimental conditions for at least 5 days prior to dosing. All animals were provided with Pedigree™ standard pellet feed, except for 10 to 12 h before treatment and 4 h after the drug administration. Water was provided ad libidum.
Formulation and drug administration: 251.02 mg of test item was transferred in to a clean mortar. Test item was ground uniformly using pestle. 1.235 ml of Tween 80 was added and the material was mixed. A small quantity of 0.5% (w/v) methylcellulose in water was added and the mixture was triturated. 0.5% methyl cellulose was added to make a final volume of 190 ml. Finally the above formulation was transferred to a pre-labeled beaker and sonicated for five minutes. Suspension was dosed under stirring conditions by placing on a magnetic stirrer.
The dose formulation of LA-1.choline was administered by oral gavage using a feeding gavage tube. The required volume of dose formulation (5 ml/kg body weight) was draw up into a graduated syringe. The dog was properly restrained with the help of another person so as to restrict movement. The feeding tube was inserted slowly in the mouth through the space between cheek and the teeth towards esophagus to the stomach. Proper placement of tube was confirmed by dipping the outside end of tube in a container with water and looking for air bubbles. Absence of air bubbles confirmed the location of tube in the stomach. The required dose volume of LA-1.choline suspension was slowly administered through the feeding tube. Air was pushed through at the end to ensure empting of the tube. The tube was slowly taken out and discarded.
Intravenous drug formulation: Accurately weighed 27.49 mg of test item was transferred in to the clean tube. A volume of 0.417 mL DMSO was added and mixed until the test dissolves completely. A volume 0.417 mL of Solutol:alcohol (1:1, v/v) was added and mixed, to this, 7.496 mL of normal saline was added and vortexed. Finally, the above formulation was used for dosing.
The required volume of dose formulation (0.2 ml/kg body weight) of LA-1.choline was drawn up into a graduated syringe. Air bubbles were removed from the syringe before dosing. The dog was restrained in the standing position. The upper portion of injection site of cephalic vein was compressed and the needle of the butterfly vein catheter sized 22G was slowly inserted in the vein. Once blood reached the end of the catheter tube, it was connected to the syringe. The dose formulation was immediately injected slowly. At the end of administration, approximately 0.5 mL of normal saline was injected via catheter to ensure the required dose volume was administrated. Last, the needle was removed.
Sample collection: Post-dosing ˜1.5 ml of blood sample from each dog for the following time points 0.25, 0.5, 1, 1.5, 2, 3, 5, 8, 10 and 24 h was collected from the jugular vein into K2EDTA containing pre-labeled vacutainer centrifuge tubes. Plasma was obtained by centrifuging blood samples at 2500 g for 10 min. under refrigeration (2-4° C.) within 0.5 h of sampling. The obtained plasma samples were transferred into pre-labeled microcentrifuge tubes (approximately ˜300 μl) and stored at or below −70±10° C. The sample labels include details such as study number, test item code and dose group and/or day of sampling, animal number, time point.
Extraction procedure: The plasma separated from the whole blood was used for bio-analysis.

[1] = tested on: murine melanoma B16-F10 tumors; experiment: Murine melanoma B16F10 allograft efficacy (Example 20); assay type: in vivo, C57BL/6 mice
physchem = experiment: physchem
Source text: A limited salt screen was previously conducted using five inorganic counter-ions (Na, K, NH4, Ca and Mg).

[2] = Beagle, dog, iv, 0.5 mg/kg, Plasma concentration
[3] = Beagle, dog, po, 5 mg/kg, Mean conc.
[4] = Beagle, dog, po, 5 mg/kg, Plasma concentration
[5] = beagle, dog, iv, 0.5 mg/kg, Mean conc.
[6] = beagle, dog, iv, 0.5 mg/kg, Plasma concentration
[7] = beagle, dog, po, 5 mg/kg, Plasma concentration

`O=C(O)c1ccc(-c2ccc(/C=C3\SC(=S)N(Cc4ccccc4)C3=O)o2)cc1` [LA1 choline salt] gave a concentration at 0.25 h (in vivo; [2]) of 723 ng/mL, a concentration at 0.5 h (in vivo; [2]) of 501 ng/mL and a concentration at 1 h (in vivo; [2]) of 397 ng/mL. For the same compound, the concentration at 2 h (in vivo; [2]) was 203 ng/mL, the concentration at 3 h (in vivo; [2]) was 265 ng/mL and the concentration at 5 h (in vivo; [2]) was 67.7 ng/mL. It also gave a concentration at 8 h (in vivo; [2]) of 44.4 ng/mL, a concentration at 10 h (in vivo; [2]) of 19.8 ng/mL and a Plasma concentration (in vivo; Beagle, dog, po, 5 mg/kg, 0.5 h) of 2776 ng/mL. The Plasma concentration (in vivo; Beagle, dog, po, 5 mg/kg, 1 h) was 2706 ng/mL, the Plasma concentration (in vivo; Beagle, dog, po, 5 mg/kg, 2 h) was 2055 ng/mL and the Plasma concentration (in vivo; Beagle, dog, po, 5 mg/kg, 3 h) was 2510 ng/mL. For the same compound, the Plasma concentration (in vivo; Beagle, dog, po, 5 mg/kg, 5 h) was 429 ng/mL, the concentration at 0.25 h (in vivo; [3]) was 1100 ng/mL and the concentration at 0.5 h (in vivo; [3]) was 1880 ng/mL. The concentration at 1 h (in vivo; [3]) was 1890 ng/mL, the concentration at 2 h (in vivo; [3]) was 1520 ng/mL and the concentration at 3 h (in vivo; [3]) was 1960 ng/mL. The concentration at 5 h (in vivo; [3]) was 414 ng/mL, the concentration at 8 h (in vivo; [3]) was 150 ng/mL and the concentration at 10 h (in vivo; [3]) was 128 ng/mL. For the same compound, the concentration at 24 h (in vivo; [3]) was 16.9 ng/mL, the concentration at 0.5 h (in vivo; [4]) was 1870 ng/mL and the concentration at 1 h (in vivo; [4]) was 1660 ng/mL. For the same compound, the concentration at 2 h (in vivo; [4]) was 1480 ng/mL, the concentration at 3 h (in vivo; [4]) was 1810 ng/mL and the concentration at 5 h (in vivo; [4]) was 442 ng/mL. The “Dog Cl” value (in vivo; beagle) was 3.9 mL/min/kg, the bioavailability (in vivo; beagle, dog, Absolute oral bioavailability) was 50.6% and the clearance (in vivo; beagle, dog, Dog Cl (ml/min/kg)) was 3.92 mL/min/kg. It also gave a bioavailability (in vivo; beagle, dog, Dog F % (absolute oral bioavailability)) of 43.4%, an AUC0-t (in vivo; beagle, dog, iv, 0.5 mg/kg) of 1330 ng·h/mL and an AUC(0-inf) (in vivo; beagle, dog, iv, 0.5 mg/kg) of 1350 ng·h/mL. The Cmax (in vivo; beagle, dog, iv, 0.5 mg/kg) was 2040 ng/mL, the Vd (in vivo; beagle, dog, iv, 0.5 mg/kg) was 0.00072 L and the Plasma concentration (in vivo; beagle, dog, iv, 0.5 mg/kg, 0.25 h) was 843 ng/mL. It also gave a Plasma concentration (in vivo; beagle, dog, iv, 0.5 mg/kg, 0.5 h) of 548 ng/mL, a Plasma concentration (in vivo; beagle, dog, iv, 0.5 mg/kg, 1 h) of 405 ng/mL and a clearance (in vivo; beagle, dog, iv, 0.5 mg/kg, Cl) of 0.0065 mL/min. For the same compound, the half-life (in vivo; beagle, dog, iv, 0.5 mg/kg, Half life) was 2.15 h, the concentration at 0.25 h (in vivo; [5]) was 851 ng/mL and the concentration at 0.5 h (in vivo; [5]) was 641 ng/mL. The concentration at 1 h (in vivo; [5]) was 508 ng/mL, the concentration at 2 h (in vivo; [5]) was 297 ng/mL and the concentration at 3 h (in vivo; [5]) was 421 ng/mL. It also gave a concentration at 5 h (in vivo; [5]) of 109 ng/mL, a concentration at 8 h (in vivo; [5]) of 44.1 ng/mL and a concentration at 10 h (in vivo; [5]) of 27.6 ng/mL. It also gave a concentration at 0.25 h (in vivo; [6]) of 987 ng/mL, a concentration at 0.5 h (in vivo; [6]) of 874 ng/mL and a concentration at 1 h (in vivo; [6]) of 721 ng/mL. The concentration at 24 h (in vivo; [6]) was 15.8 ng/mL, the AUC0-t (in vivo; beagle, dog, po, 3 mg/kg) was 2570 ng·h/mL and the AUC(0-inf) (in vivo; beagle, dog, po, 3 mg/kg) was 2690 ng·h/mL. For the same compound, the Cmax (in vivo; beagle, dog, po, 3 mg/kg) was 685 ng/mL, the Tmax (in vivo; beagle, dog, po, 3 mg/kg) was 4 h and the half-life (in vivo; beagle, dog, po, 3 mg/kg, Half life) was 2.11 h. The “Vdss” value (in vivo; beagle, dog, po, 5 mg/kg) was 0.83 L/kg, the peak concentration (in vivo; beagle, dog, po, 5 mg/kg) was 2068 ng/mL and the “t1/2 (hr), oral half-life” value (in vivo; beagle, dog, po, 5 mg/kg) was 3.41 h. For the same compound, the “time of peak concentration post dose” value (in vivo; beagle, dog, po, 5 mg/kg) was 1.5 h, the concentration at 0.5 h (in vivo; [7]) was 999 ng/mL and the concentration at 1 h (in vivo; [7]) was 1310 ng/mL. The concentration at 2 h (in vivo; [7]) was 1020 ng/mL, the concentration at 3 h (in vivo; [7]) was 1560 ng/mL and the concentration at 5 h (in vivo; [7]) was 370 ng/mL. The concentration at 8 h (in vivo; [7]) was 107 ng/mL, the concentration at 10 h (in vivo; [7]) was 158 ng/mL and the half-life (in vivo; beagle, dog, po, 5 mg/kg, t1/2 (hr), oral half-life) was ~3.4 h. For the same compound, the “growth inhibition of B16-F10 tumors as compared to vehicle control” value ([1]; 3-100 mg/kg orally) was 43-68% and the tumor volume ([1]; 3-100 mg/kg, FIG. 24) was “decreased tumor volume in a dose dependent manner”.

Compound `O=C(O)c1ccc(-c2ccc(/C=C3\SC(=S)N(Cc4ccccc4)C3=O)o2)cc1` [LA1, (Z)-4-(5-((3-benzyl-4-oxo-2-thioxothiazolidin-5-ylidene)methyl)furan-2-yl)benzoic acid] has a solubility (physchem) of 0.78 µg/mL (≈ 1.85 µM).
